Experimental data as given in patent publication US12448373B2, “Azetidinyl-acetamides as CXCR7 inhibitors” (CHEMOCENTRYX, INC., priority 2021, dated 2025).

What follows are molecules tested against T1, CXCR7 (Homo sapiens, UniProt P25106) (assay: CXCR7 β-arrestin recruitment assay in CHO-CXCR7 cells (ProLink/EA β-galactosidase complementation), induced by human SDF-1a). Conditions: assay buffer, SDF-1a at EC50 concentration.
T1 construct: expressed in transfected cells; host or cells: CHO cells (CHO-CXCR7), transgenes maintained with Hygromycin B and G418
Type: cell-based
Method: CXCR7 is fused in frame with a small enzyme donor fragment ProLink and co-expressed in CHO cells stably expressing a fusion protein of β-arrestin and the larger, N-terminal deletion mutant of β-galactosidase (called enzyme acceptor or EA). Activation of the CXCR7 stimulates binding of β-arrestin to the ProLink-tagged CXCR7 and forces complementation of the two enzyme fragments, resulting in the formation of an active β-galactosidase enzyme. The β-galactosidase enzyme activity is measured with a substrate that generates fluorescence.
CHO-CXCR7 cells (0.22×10^6/mL) were cultured in growth medium (Ham's F-12 medium with 10% fetal bovine serum (FBS)), Hygromycin B (200 ug/mL) and G418 (250 ug/mL) were used to maintain the transgenes. The day before the assay, the cells were detached from culture dishes with 0.25% trypsin-EDTA (Corning, Catalog No. 25-053-CI), plated into 96 well plate (2.2×10^5 cells/mL, 100 μL/well) and incubated overnight at 37° C. with 5% CO2. On the day of the assay, cell culture medium was removed and 100 uL of assay buffer (PBS or FBS) was added to each well. 1 μL of compound that were serially diluted in DMSO was added to each well. 5 μL of human SDF-la (Pepro Tech, Catalog No. 300-28A, at EC50 concentration pre-determined on the same day) was then added and mixed to induce CXCR7-mediated β-arrestin recruitment. The plates were incubated for 1.5 hours at 37° C. The assay buffer was removed, 100 μL substrate solution was added and the reaction was carried out at 37° C. for 30 minutes. The substrate solution was prepared by mixing 100 mL Phosphate Buffer (1M, Sigma, Catalog No. P3619-1GA), 100 mL 10% Triton X 100 (Sigma, Catalog No. T8787.), 5 mL MgCl2 (1M, Sigma, Catalog No. M1028), 1.5 mL, β-mercaptoethanol (Gibco, Catalog No. 21985-023.). 3-carboxyumbelliferyl β-D-galactopyranoside (ThermoFisher Scientific, Catalo No. F2905) was added at 0.4 mM right before use. The reaction was then stopped by adding 50 μL of Stop Solution (2.1% w/v Na2CO3) to each well. Fluorescence intensity was measured with a FlexStation 3 microplate reader (Molecular Devices) with the following setting—excitation: 360 nm, emission: 465 nm, manual Gain: 55. IC50 values were calculated with GraphPad Prism using 3 parameter nonlinear regression.

T1 sequence (P25106 whole entry): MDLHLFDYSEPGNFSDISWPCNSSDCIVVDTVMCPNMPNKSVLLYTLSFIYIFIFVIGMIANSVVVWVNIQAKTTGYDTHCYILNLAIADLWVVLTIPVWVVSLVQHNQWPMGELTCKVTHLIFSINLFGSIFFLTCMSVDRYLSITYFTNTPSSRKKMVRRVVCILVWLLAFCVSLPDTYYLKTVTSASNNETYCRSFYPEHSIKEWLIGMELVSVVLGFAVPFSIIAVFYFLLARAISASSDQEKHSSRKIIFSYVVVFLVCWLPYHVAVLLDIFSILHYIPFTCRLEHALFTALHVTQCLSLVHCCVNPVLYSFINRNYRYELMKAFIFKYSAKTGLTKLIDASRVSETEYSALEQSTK

Structure (SMILES) | IC50 [nM]
CC(C)(NC(=O)CC1(NC(=O)c2nnc(-c3ccc(F)cc3F)s2)CN([C@H]2CC[C@](C)(O)CC2)C1)c1ccccn1 [Example 1.063] | 5 to 100
CC(C)(NC(=O)CC1(NC(=O)c2cc(-c3ccc(F)cc3F)on2)CN([C@H]2CC[C@@](C)(O)CC2)C1)c1ccc(Cl)cc1 [Example 1.249] | 5 to 100
CC(C)(NC(=O)CC1(NC(=O)c2cc(-c3ccc(F)cc3F)on2)CN([C@H]2CC[C@@](C)(C(=O)O)CC2)C1)c1ccccn1 [Example 1.107] | 1000 to 20000
CC(C)(NC(=O)CC1(NC(=O)c2cc(-c3ccc(F)cc3F)on2)CN([C@H]2CC[C@@](C)(O)CC2)C1)c1ccncc1 [Example 1.180] | < 5
CC(C)(NC(=O)CC1(NC(=O)c2ccn(-c3ccc(F)cc3F)n2)CN([C@H]2CC[C@](C)(O)CC2)C1)c1cccc(Cl)c1 [Example 1.056] | 1000 to 20000
COc1cc(Cl)cc(C(C)(C)NC(=O)CC2(NC(=O)c3cc(-c4ccc(F)cc4F)on3)CN([C@H]3CC[C@](C)(O)CC3)C2)c1 [Example 1.165] | < 5
CC(C)(NC(=O)CC1(NC(=O)c2cc(-c3ccc(F)cc3F)on2)CN([C@H]2CC[C@@](C)(O)CC2)C1)c1cccc(OC(F)(F)F)c1 [Example 1.197] | < 5
COc1cccc(C(C)(C)NC(=O)CC2(NC(=O)c3cc(-c4ccc(F)cc4F)on3)CN([C@H]3CC[C@](C)(O)CC3)C2)c1F [Example 1.196] | 100 to 1000
COc1cccc(C(C)(C)NC(=O)CC2(NC(=O)c3cc(-c4ccc(F)cc4F)on3)CN(C3CCC4(CC3)COC4)C2)c1 [Example 1.183] | 5 to 100
CC[C@@H](NC(=O)CC1(NC(=O)c2cc(-c3ccc(F)cc3F)on2)CN(C2CCCCC2)C1)c1ccccc1 [Example 1.307] | 5 to 100
CC(C)(NC(=O)CC1(NC(=O)c2nnc(-c3ccc(F)cc3F)s2)CN([C@H]2CC[C@](C)(O)CC2)C1)c1ncccc1F [Example 1.022] | 5 to 100
Cc1cc(C(C)(C)NC(=O)CC2(NC(=O)c3cc(-c4ccc(F)cc4F)on3)CN(CC(C)(C)O)C2)ccn1 [Example 1.175] | 5 to 100
CC(C)(NC(=O)CC1(NC(=O)c2cc(-c3ccc(F)cc3F)on2)CN(C2CCCCC2)C1)c1ccc(Cl)nc1 [Example 1.284] | 5 to 100
C[C@]1(O)CC[C@H](N2CC(CC(=O)NCc3c[nH]c4ccccc34)(NC(=O)c3cc(-c4ccc(F)cc4F)on3)C2)CC1 [Example 1.279] | 5 to 100
CC(C)(NC(=O)CC1(NC(=O)c2cc(-c3ccc(F)cc3F)on2)CN([C@H]2CC[C@@](C)(O)CC2)C1)c1cc(F)cc(Cl)c1 [Example 1.123] | < 5
COC1CCCCC1N1CC(CC(=O)NC(C)(C)c2ccccn2)(NC(=O)c2cc(-c3ccc(F)cc3F)on2)C1 (centres unmarked) [Example 1.305] | < 5
CC(C)(NC(=O)CC1(NC(=O)c2cc(-c3ccc(F)cc3F)on2)CN(C2CCCCC2)C1)c1nccs1 [Example 1.276] | 5 to 100
CC(C)(NC(=O)CC1(NC(=O)c2nnc(-c3ccc(F)cc3F)s2)CN([C@H]2CC[C@](C)(O)CC2)C1)c1cc(Cl)cc(Cl)c1 [Example 1.007] | < 5
CC(C)(O)CN1CC(CC(=O)NC(C)(C)c2cccc(Cl)c2)(NC(=O)c2cc(-c3ccc(F)cc3F)on2)C1 [Example 1.178] | < 5
Cc1cc(C)nc(C(C)(C)NC(=O)CC2(NC(=O)c3cc(-c4ccc(F)cc4F)on3)CN(CC3(C)COC3)C2)n1 [Example 1.131] | 1000 to 20000
CC(C)(NC(=O)CC1(NC(=O)c2cc(-c3ccc(F)cc3F)on2)CN([C@H]2CC[C@@](C)(O)CC2)C1)c1cccnc1 [Example 1.193] | 5 to 100
Cc1cc(C)nc(C(C)(C)NC(=O)CC2(NC(=O)c3cc(-c4ccc(F)cc4F)on3)CN([C@H]3CC[C@](C)(O)CC3)C2)n1 [Example 1.168] | < 5
CC(C)(NC(=O)CC1(NC(=O)c2cc(-c3ccc(F)cc3F)on2)CN([C@H]2CC[C@@](C)(O)CC2)C1)c1cc(Cl)cc(Cl)c1 [Example 1.086] | < 5
Cc1cc(Cl)cc(C(C)(C)NC(=O)CC2(NC(=O)c3cc(-c4ccc(F)cc4F)on3)CN([C@H]3CC[C@@](C)(O)CC3)C2)c1 [Example 1.083] | < 5

Other lines, results leading:

IC50 [nM] | Structure (SMILES)
5 to 100 | COc1cc(C)cc(C(C)(C)NC(=O)CC2(NC(=O)c3nnc(-c4ccc(F)cc4F)s3)CN([C@H]3CC[C@](C)(O)CC3)C2)n1 [Example 1.346]
5 to 100 | COc1ccc(C(C)(C)NC(=O)CC2(NC(=O)c3cc(-c4ccc(F)cc4F)on3)CN([C@H]3CC[C@@](C)(O)CC3)C2)c(F)c1 [Example 1.212]
< 5 | CC(C)(NC(=O)CC1(NC(=O)c2cc(-c3ccc(F)cc3F)on2)CN([C@H]2CC[C@@](C)(O)CC2)C1)c1cccc2cc[nH]c12 [Example 1.115]
5 to 100 | Cc1cccc(C(C)(C)NC(=O)CC2(NC(=O)c3cc(-c4ccc(F)cc4F)on3)CN(C3CCC4(CC3)COC4)C2)n1 [Example 1.226]
< 5 | Cc1ccnc(C(C)(C)NC(=O)CC2(NC(=O)c3cc(-c4ccc(F)cc4F)on3)CN([C@H]3CC[C@@](C)(O)CC3)C2)c1 [Example 1.163]
5 to 100 | COc1ccc(F)c(C(C)(C)NC(=O)CC2(NC(=O)c3cc(-c4ccc(F)cc4F)on3)CN([C@H]3CC[C@](C)(O)CC3)C2)c1 [Example 1.206]
5 to 100 | CC(C)(NC(=O)CC1(NC(=O)c2cc(-c3ccc(F)cc3F)on2)CN(C2CCOCC2)C1)c1cccc(Cl)c1 [Example 1.095]
5 to 100 | CC(C)(NC(=O)CC1(NC(=O)c2cc(-c3ccc(F)cc3F)on2)CN([C@H]2CC[C@@](C)(O)CC2)C1)c1ccc(F)cc1 [Example 1.259]
< 5 | CC(C)(NC(=O)CC1(NC(=O)c2cc(-c3ccc(F)cc3F)on2)CN([C@H]2CC[C@@](C)(O)CC2)C1)c1ccccc1Cl [Example 1.218]
5 to 100 | CC(C)(NC(=O)CC1(NC(=O)c2cc(-c3ccc(F)cc3F)on2)CN(C2CCCC2)C1)c1ccccn1 [Example 1.094]
< 5 | COc1ccccc1C(C)(C)NC(=O)CC1(NC(=O)c2cc(-c3ccc(F)cc3F)on2)CN(C2CCC(C)(O)CC2)C1 (centres unmarked) [Example 1.241]
5 to 100 | COc1ccc(F)cc1C(C)(C)NC(=O)CC1(NC(=O)c2nnc(-c3ccc(F)cc3F)s2)CN([C@H]2CC[C@](C)(O)CC2)C1 [Example 1.017]
1000 to 20000 | C[C@]1(O)CC[C@@H](N2CC(CC(=O)NCc3ccccn3)(NC(=O)c3cc(-c4ccc(F)cc4F)on3)C2)CC1 [Example 1.098]
5 to 100 | O=C(CC1(NC(=O)c2cc(-c3ccc(F)cc3F)on2)CN(CC2CC2)C1)NC1(c2ncccn2)CC1 [Example 1.334]
5 to 100 | CC(C)(NC(=O)CC1(NC(=O)c2cc(-c3ccc(F)cc3F)on2)CN([C@H]2CC[C@](C)(O)CC2)C1)c1ccc(F)cc1F [Example 1.287]
< 5 | CC(C)(NC(=O)CC1(NC(=O)c2cc(-c3ccc(F)cc3F)on2)CN([C@H]2CC[C@@](C)(O)CC2)C1)c1ccccc1F [Example 1.227]
5 to 100 | C[C@]1(O)CC[C@H](N2CC(CC(=O)NC3(c4ncccn4)CC3)(NC(=O)c3cc(-c4ccc(F)cc4F)on3)C2)CC1 [Example 1.356]
1000 to 20000 | CC(N1CC(CC(=O)NC(C)(C)c2ccccn2)(NC(=O)c2cc(-c3ccc(F)cc3F)on2)C1)C(F)(F)F (centres unmarked) [Example 1.312]
< 5 | CC(C)(NC(=O)CC1(NC(=O)c2cc(-c3ccc(F)cc3F)on2)CN([C@H]2CC[C@@](C)(O)CC2)C1)c1cccc(F)c1 [Example 1.290]
5 to 100 | COc1cccc(C(C)(C)NC(=O)CC2(NC(=O)c3cc(-c4ccc(F)cc4F)on3)CN(CC(C)(C)O)C2)c1 [Example 1.179]
5 to 100 | CC(C)(NC(=O)CC1(NC(=O)c2cc(-c3ccc(F)cc3F)on2)CN([C@H]2CC[C@@](C)(O)CC2)C1)c1ccc(F)cc1Cl [Example 1.252]
< 5 | CC(C)CN1CC(CC(=O)NC(C)(C)c2ccnc3[nH]ccc23)(NC(=O)c2cc(-c3ccc(F)cc3F)on2)C1 [Example 1.077]
100 to 1000 | CC(C)N1CC(CC(=O)NC2(c3ncccn3)CC2)(NC(=O)c2cc(-c3ccc(F)cc3F)on2)C1 [Example 1.333]
1000 to 20000 | CC(C)(NC(=O)CC1(NC(=O)c2cc(-c3ccc(F)cc3F)on2)CN(c2ncccn2)C1)c1ccccn1 [Example 1.315]
< 5 | Cc1cc(C)nc(C(C)(C)NC(=O)CC2(NC(=O)c3nnc(-c4ccc(F)cc4F)s3)CN([C@H]3CC[C@](C)(O)CC3)C2)n1 [Example 1.061]
5 to 100 | Cc1cc(C(C)(C)NC(=O)CC2(NC(=O)c3cc(-c4ccc(F)cc4F)on3)CN(CC3CC3)C2)ccn1 [Example 1.114]
